Consider 4 compounds from patent US12286437B2, “Cardiac sarcomere inhibitors” (Cytokinetics, Inc., priority 2021, dated 2025).

Read-outs that look alike come from different tables or passages of the source.

In one data set the target is T1, CYP3A4 (Homo sapiens, UniProt P08684).
T1 construct: Pooled human microsomes and selective CYP probe substrates were used; from tissue; host or cells: pooled human liver microsomes
In words: Time-dependent inhibition of CYP3A4 in human liver microsomes (testosterone and midazolam probes). The format is in vitro ADME. The settings on record: for (% Activity NADPH T0)/(% Activity NADPH T30): fold change; for activity at 30 min, 25 µM / activity at 30 min, 50 µM: human, after 30 minutes incubation, read-out: % Activity NADPH T30; for activity at 30 min, 25 µM / activity at 30 min, 50 µM / activity at 0 min, 25 µM / activity at 0 min, 50 µM: pooled human liver microsomes; for activity at 0 min, 25 µM / activity at 0 min, 50 µM: human liver microsomes, time zero, read-out: % Activity NADPH T0. How it is done: (§1) An assessment of the time-dependent Inhibitory Potential of the test compounds against Principal Human Cytochrome P450 Isozymes using Human Liver Microsomes was also carried out using standard methods (Grimm et al, Drug Metab. Dispos., July; 37(7):1355-70. doi: 10.1124/dmd.109.026716, 2009). Pooled human microsomes and selective CYP probe substrates were used for in vitro assessment of test compounds at 25 and 50 μM as time-dependent inhibitors of […] human hepatic cytochrome P450 isozymes (CYP1A2, 2B6, 2C9, 2C19, 2D6, and 3A4). LC-MS/MS was used to quantify metabolite formation. The inhibition of each P450 enzyme in human liver microsomes was measured as the percentage decrease in the activity of marker metabolite formation as measured by LC-MS/MS compared to non-inhibited controls (=100% activity) at time zero and after 30 minutes incubation. The occurrence of any time dependent inhibition was then expressed as the fold change in enzyme activity at time zero relative to the activity after 30 minutes incubation.

The next data set has as its target T2, CYP2B6 (Homo sapiens, UniProt P20813).
T2 construct: Pooled human microsomes and selective CYP probe substrates were used; from tissue; host or cells: pooled human liver microsomes
T2 sequence (P20813 1-491): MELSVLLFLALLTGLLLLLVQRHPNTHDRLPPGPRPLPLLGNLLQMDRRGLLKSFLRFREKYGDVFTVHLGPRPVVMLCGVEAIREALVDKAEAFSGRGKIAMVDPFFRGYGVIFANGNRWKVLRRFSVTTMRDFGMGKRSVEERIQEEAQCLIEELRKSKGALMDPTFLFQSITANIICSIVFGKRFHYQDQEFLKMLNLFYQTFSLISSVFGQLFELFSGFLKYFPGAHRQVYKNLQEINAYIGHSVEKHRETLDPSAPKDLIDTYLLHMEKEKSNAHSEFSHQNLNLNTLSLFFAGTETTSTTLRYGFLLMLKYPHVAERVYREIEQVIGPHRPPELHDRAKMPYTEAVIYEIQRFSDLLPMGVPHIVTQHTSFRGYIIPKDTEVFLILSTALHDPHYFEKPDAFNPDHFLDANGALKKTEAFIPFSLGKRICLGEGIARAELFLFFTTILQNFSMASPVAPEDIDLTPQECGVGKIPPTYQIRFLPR
In words: Time-dependent inhibition of CYP2B6 in human liver microsomes. The settings on record: for (% Activity NADPH T0)/(% Activity NADPH T30): fold change; for activity at 30 min, 25 µM / activity at 0 min, 25 µM / activity at 30 min, 50 µM / activity at 0 min, 50 µM: pooled human liver microsomes, human liver microsomes; for activity at 30 min, 25 µM / activity at 30 min, 50 µM: after 30 minutes incubation, read-out: % Activity NADPH T30; for activity at 0 min, 25 µM / activity at 0 min, 50 µM: time zero, read-out: % Activity NADPH T0. The format is in vitro ADME. How it is done: as §1

Data set [1] is described as follows: Mouse single dose pharmacokinetics. In kind it is in vivo, C57BL/6 mice. The conditions noted are these: male, C57BL/6, plasma, 0.5 mg/kg, IV; for Vd: read-out: Vss; for half-life: read-out: t½ (converted). How it is done:
Male C57BL/6 mice (18-25 g, 6-8 weeks old) were obtained from Zhejiang Vital River Laboratory Animal Technology Co., Ltd. All animals for IV administration had free access to food and water. The IV dosing was performed through tail vein. The IV dose solution for the Test Articles was prepared in 10% DMA/20% PG/70% HPβCD solution (40% w/v aqueous HPβCD) at a concentration of 0.1 mg/mL. The oral dosing suspension was prepared by suspending Test Article in 0.5% HPMC/0.1% Tween 80 in water at a concentration 0.2 mg/mL. Concentrations of IV and PO doses were measured at the end of the study. Pharmacokinetic (PK) parameters were calculated using the nominal dose values if the measured values were within 20% of the nominal values. A group of 15 mice received the IV dose where the volume was 5 mL/kg. Another group of 15 mice received by oral gavage of Test Article at 1 mg/kg. The oral dose volume was 5 mL/kg. Sparse blood samples were collected from groups of three mice via retro-orbital bleeding, placed into a K2EDTA microtainer tube and maintained on ice until centrifugation to obtain plasma. Each designated group of mice were bled at two-time points. The time points were predose (PO only), 5 (IV only), 15, 30 minutes, 1, 2, 4, 6, 8 and 24 hours postdose. Blood samples were centrifuged and the collected plasma was stored at −80° C. until analysis. Plasma samples were analyzed for Test Article concentrations using an LC/MS/MS method. Briefly, a 50 μL aliquot of each plasma sample was mixed with 100 μL of acetonitrile that contained an internal standard (IS). The mixture was vortexed and centrifuged. Ten (10) μL of the resulting solution was injected onto a reverse-phase C18 column and the resultant peaks detected on a LC/MS/MS equipped with a turbo ionspray ionization source. Sample concentrations below the limit of quantification (BLQ) were treated as zero for PK calculations. Composite PK parameters were estimated from a maximum of two sampling points per mouse and three mice per sampling point and the sparse data option of WinNonlin was used for noncompartmental analysis of the concentration-time data (Phoenix WinNonLin software, version 64; Pharsight, Mountain View, CA). The elimination rate constant (k) was calculated as the absolute value of the slope of the linear regression of logarithm of the concentration versus time for the last three data points of the concentration-time profiles. Apparent elimination half-life (t1/2) values were calculated as ln(2)/k. Area under the concentration-time curve (AUC) values were estimated using linear trapezoidal method. AUCt values were calculated from the dosing time to the last measurable concentration. AUC∞ values were calculated as the sum of the corresponding AUCt and the ratio of the last detectable concentration divided by k. Plasma clearance (CL) was calculated from Dose/AUC∞. Mean resident time (MRT) was estimated by moment analysis. Volume of distribution at steady state (Vss) was calculated from MRT∞×CL. Maximum concentration (Cmax) and time to reach Cmax (tmax) were recorded as observed. Bioavailability was calculated dAUC∞,po/dAUC∞,iv×100% where dAUC was the dose normalized AUC value. Data for compounds tested are provided in Table B. Compounds tested were prepared in accordance with the synthetic procedures described herein.

Where [2] appears, read: CYP3A4-M (midazolam probe substrate), 25 μM.
Setting [3] is: CYP3A4-M (midazolam probe substrate), 50 μM.
The mark [4] stands for this setting: CYP3A4-T (testosterone probe substrate), 25 μM.
Where [5] appears, read: CYP3A4-T (testosterone probe substrate), 50 μM.

T1 sequence (P08684 whole entry): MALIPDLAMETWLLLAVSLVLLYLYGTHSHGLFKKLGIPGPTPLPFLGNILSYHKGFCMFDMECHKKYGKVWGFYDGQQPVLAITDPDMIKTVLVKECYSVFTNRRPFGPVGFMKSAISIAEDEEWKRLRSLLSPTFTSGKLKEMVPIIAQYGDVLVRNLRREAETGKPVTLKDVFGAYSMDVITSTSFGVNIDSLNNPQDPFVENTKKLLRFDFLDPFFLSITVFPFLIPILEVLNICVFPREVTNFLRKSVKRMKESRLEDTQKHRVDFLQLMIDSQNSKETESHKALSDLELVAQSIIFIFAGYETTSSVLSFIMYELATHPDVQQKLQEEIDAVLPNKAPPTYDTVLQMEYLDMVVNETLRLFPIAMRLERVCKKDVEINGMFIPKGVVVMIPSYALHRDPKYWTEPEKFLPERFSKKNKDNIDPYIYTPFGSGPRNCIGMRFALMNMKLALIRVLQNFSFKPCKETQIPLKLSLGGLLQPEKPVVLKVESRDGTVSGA

With `C[C@H]1CC[C@H](N2CC(=O)N(Cc3ccc(F)c(F)c3)C3(CN(C=O)C3)C2=O)CC1` [Compound 4, 5-(3,4-difluorobenzyl)-8-((1r,4r)-4-methylcyclohexyl)-6,9-dioxo-2,5,8-triazaspiro[3.5]nonane-2-carbaldehyde], the “(% Activity NADPH T0)/(% Activity NADPH T30)” value on CYP3A4 (setting [2]) amounted to 0.8; at CYP3A4 (setting [3]) it was 0.7; on CYP3A4 (setting [4]), 0.9; on CYP3A4 (setting [5]), 0.8; at CYP2B6 (CYP2B6, 25 μM), 1.1; at CYP2B6 (CYP2B6, 50 μM), 1.0.

With `C[C@H]1CC[C@H](N2CC(=O)N(Cc3ccc(F)c(F)c3)C3(CN(C(N)=O)C3)C2=O)CC1` [Compound 5, 5-(3,4-difluorobenzyl)-8-((1r,4r)-4-methylcyclohexyl)-6,9-dioxo-2,5,8-triazaspiro[3.5]nonane-2-carboxamide], on CYP3A4 (setting [2]), the “(% Activity NADPH T0)/(% Activity NADPH T30)” value turned out to be 1.1; the activity at 30 min, 25 µM came out at 69%; the activity at 0 min, 25 µM was 75%. In addition, on CYP3A4 (setting [3]), the “(% Activity NADPH T0)/(% Activity NADPH T30)” value was 1.9; the activity at 30 min, 50 µM is 35%; the activity at 0 min, 50 µM turned out to be 67%. At CYP3A4 (setting [4]), the “(% Activity NADPH T0)/(% Activity NADPH T30)” value is recorded as 1.1; the activity at 30 min, 25 µM was determined as 87%; the activity at 0 min, 25 µM is 100%. Further, at CYP3A4 (setting [5]), the “(% Activity NADPH T0)/(% Activity NADPH T30)” value stood at 1.4; the activity at 30 min, 50 µM is 68%; the activity at 0 min, 50 µM worked out at 98%. Also, at CYP2B6 (CYP2B6, 25 μM), the “(% Activity NADPH T0)/(% Activity NADPH T30)” value is 1.0; the activity at 30 min, 25 µM was 78%; the activity at 0 min, 25 µM came to 79%. Moreover, on CYP2B6 (CYP2B6, 50 μM), the “(% Activity NADPH T0)/(% Activity NADPH T30)” value was 1.1; the activity at 30 min, 50 µM was 76%; the activity at 0 min, 50 µM came to 83%. In data set [1], the clearance worked out at 1.13 L/h/kg, the Vd was found to be 4.08 L/kg and the half-life is 3.08 h.

In the case of `Cc1cc(CN2C(=O)CN([C@H]3CC[C@H](C)CC3)C(=O)C23CN(C(N)=O)C3)ccc1F` [Compound 6, 5-(4-fluoro-3-methylbenzyl)-8-((1r,4r)-4-methylcyclohexyl)-6,9-dioxo-2,5,8-triazaspiro[3.5]nonane-2-carboxamide], at CYP3A4 (setting [2]), the “(% Activity NADPH T0)/(% Activity NADPH T30)” value was 1.0; the activity at 30 min, 25 µM was 89%; the activity at 0 min, 25 µM turned out to be 89%. For the same compound, at CYP3A4 (setting [3]), the “(% Activity NADPH T0)/(% Activity NADPH T30)” value came out at 0.8; the activity at 30 min, 50 µM was determined as 86%; the activity at 0 min, 50 µM was 72%. In addition, on CYP3A4 (setting [4]), the “(% Activity NADPH T0)/(% Activity NADPH T30)” value was determined as 1.3; the activity at 30 min, 25 µM is 76%; the activity at 0 min, 25 µM worked out at 95%. On CYP3A4 (setting [5]), the “(% Activity NADPH T0)/(% Activity NADPH T30)” value is listed as 1.4; the activity at 30 min, 50 µM was found to be 63%; the activity at 0 min, 50 µM was 89%. In addition, on CYP2B6 (CYP2B6, 25 μM), the “(% Activity NADPH T0)/(% Activity NADPH T30)” value was 1.1; the activity at 30 min, 25 µM was determined as 83%; the activity at 0 min, 25 µM was found to be 95%. Further, at CYP2B6 (CYP2B6, 50 μM), the “(% Activity NADPH T0)/(% Activity NADPH T30)” value is on record as 1.1; the activity at 30 min, 50 µM was 77%; the activity at 0 min, 50 µM was 87%. Further, in data set [1], the clearance was 1.69 L/h/kg, the Vd was found to be 2.52 L/kg and the half-life was 1.27 h.

Turning to `C[C@H]1CC[C@H](N2CC(=O)N(Cc3ccc(F)c(Cl)c3)C3(CN(C(N)=O)C3)C2=O)CC1` [Compound 7, 5-(3-chloro-4-fluorobenzyl)-8-((1r,4r)-4-methylcyclohexyl)-6,9-dioxo-2,5,8-triazaspiro[3.5]nonane-2-carboxamide], at CYP3A4 (setting [2]), the “(% Activity NADPH T0)/(% Activity NADPH T30)” value worked out at 1.0; the activity at 30 min, 25 µM came to 100%; the activity at 0 min, 25 µM is 100%. At CYP3A4 (setting [3]), the “(% Activity NADPH T0)/(% Activity NADPH T30)” value came to 1.0; the activity at 30 min, 50 µM turned out to be 100%; the activity at 0 min, 50 µM amounted to 100%. Moreover, on CYP3A4 (setting [4]), the “(% Activity NADPH T0)/(% Activity NADPH T30)” value came to 1.0; the activity at 30 min, 25 µM is 100%; the activity at 0 min, 25 µM is 100%. At CYP3A4 (setting [5]), the “(% Activity NADPH T0)/(% Activity NADPH T30)” value was determined as 1.0; the activity at 30 min, 50 µM was 100%; the activity at 0 min, 50 µM was determined as 100%. In addition, on CYP2B6 (CYP2B6, 25 μM), the “(% Activity NADPH T0)/(% Activity NADPH T30)” value turned out to be 0.9; the activity at 30 min, 25 µM amounted to 74%; the activity at 0 min, 25 µM was 70%. In addition, on CYP2B6 (CYP2B6, 50 μM), the “(% Activity NADPH T0)/(% Activity NADPH T30)” value came to 1.1; the activity at 30 min, 50 µM amounted to 70%; the activity at 0 min, 50 µM is 78%. Further, in data set [1], the clearance was 0.9 L/h/kg, the Vd is 2.95 L/kg and the half-life is 2.5 h.
